Test: storage of the aqueous salt solution at room temperature under nitrogen
Type: physicochemical
Conditions: ~10% aqueous solution, stored for several days at room temperature under nitrogen
Method: Naringenin (500 mg, 1.84 mmol) was suspended in water (2 mL) and while stirring a solution of NaOH (2 equiv.) in water (3 mL) was added dropwise. After addition was complete, the reaction was bubbled with nitrogen and stirring continued until the solution became homogeneous. […] MS 273 (M+3H−2Na)^+.
Naringenin (500 mg, 1.84 mmol) was suspended in water (2 mL) and while stirring a solution of KOH (2 equiv.) in water (3 mL) was added dropwise. After addition was complete, the reaction was bubbled with nitrogen and stirring continued until the solution became homogeneous. […] MS 273 (M+3H−2K)^+.
Phloterin (500 mg, 1.82 mmol) was suspended in water (2 mL) and while stirring a solution of NaOH (2 equiv.) in water (3 mL) was added dropwise. After addition was complete, the reaction was bubbled with nitrogen and stirring continued until the solution became homogeneous. […] MS 275 (M+3H−2Na)^+.
Phloterin (500 mg, 1.82 mmol) was suspended in water (2 mL) and while stirring a solution of KOH (2 equiv.) in water (3 mL) was added dropwise. After addition was complete, the reaction was bubbled with nitrogen and stirring continued until the solution became homogeneous. […] MS 275 (M+3H−2K)^+.

| SMILES | stability of the solution on storage |
| --- | --- |
| O=C1C[C@@H](c2ccc(O)cc2)Oc2cc(O)cc(O)c21.[K].[K] [Example 2, Dipotassium Salt of Naringenin] | without any significant change |
| O=C(CCc1ccc(O)cc1)c1c(O)cc(O)cc1O.[Na].[Na] [Example 3, Disodium Salt of Phloterin] | without any significant change |
| O=C1C[C@@H](c2ccc(O)cc2)Oc2cc(O)cc(O)c21.[Na].[Na] [Example 1, Disodium Salt of Naringenin] | without any significant change |
| O=C(CCc1ccc(O)cc1)c1c(O)cc(O)cc1O.[K].[K] [Example 4, Dipotassium Salt of Phloterin] | without any significant change |
